For orientation: IC50 means the concentration at which inhibition is half-maximal. A low value points to greater potency. For orientation: Ki means the equilibrium dissociation constant of an inhibitor or competing ligand from its target. Low values mean tighter binding, high ones weaker binding.

The target in test [1] is T1, Matrix metalloproteinase-9 (Homo sapiens, UniProt P14780). Briefly: Inhibition of human matrix metalloprotease-9 expressed in Sf9 insect cells.
Test [2] addresses T2, Matrix metalloproteinase-14 (Homo sapiens, UniProt P50281). Put plainly: Inhibition of human matrix metalloprotease-14 expressed in Escherichia coli.
In test [3] the target is 72 kDa type IV collagenase (Homo sapiens, UniProt P08253). Put plainly: Inhibition of human matrix metalloprotease-2 expressed in Sf9 insect cells; NA:Not active.
The target in test [4] is T2, Matrix metalloproteinase-14. Briefly: Inhibitory concentration against matrix metalloprotease-14 in Escherichia coli was determined; NA:Not active.
Test [5] has as its target T1, Matrix metalloproteinase-9. Briefly: Inhibition of human matrix metalloprotease-9 expressed in Sf9 insect cells; NA:Not active.
Test [6] deals with T3, Aminopeptidase N (Homo sapiens, UniProt P15144). Briefly: Binding affinity towards aminopeptidase N.
In test [7] the target is T3, Aminopeptidase N. Put plainly: Inhibitory concentration against aminopeptidase N.

T1 sequence (P14780 whole entry): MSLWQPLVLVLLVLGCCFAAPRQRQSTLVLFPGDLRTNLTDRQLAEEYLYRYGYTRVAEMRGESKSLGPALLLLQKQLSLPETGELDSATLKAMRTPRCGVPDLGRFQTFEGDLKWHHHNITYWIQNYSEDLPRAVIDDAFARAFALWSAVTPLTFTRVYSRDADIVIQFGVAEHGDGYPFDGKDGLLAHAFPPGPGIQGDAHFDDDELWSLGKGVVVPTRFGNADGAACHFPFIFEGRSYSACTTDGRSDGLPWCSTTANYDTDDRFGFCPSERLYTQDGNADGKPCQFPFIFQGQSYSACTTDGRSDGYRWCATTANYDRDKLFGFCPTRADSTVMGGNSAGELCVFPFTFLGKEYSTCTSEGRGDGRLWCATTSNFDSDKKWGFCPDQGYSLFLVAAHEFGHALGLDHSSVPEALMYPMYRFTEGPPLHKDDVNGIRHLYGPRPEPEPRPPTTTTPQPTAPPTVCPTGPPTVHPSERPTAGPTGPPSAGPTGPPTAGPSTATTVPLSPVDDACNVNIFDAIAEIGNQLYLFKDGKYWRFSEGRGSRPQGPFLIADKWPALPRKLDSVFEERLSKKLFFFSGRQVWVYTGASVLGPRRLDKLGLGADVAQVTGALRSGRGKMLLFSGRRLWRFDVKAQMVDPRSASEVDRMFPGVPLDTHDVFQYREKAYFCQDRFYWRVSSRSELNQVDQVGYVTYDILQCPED
T3 sequence (P15144 whole entry): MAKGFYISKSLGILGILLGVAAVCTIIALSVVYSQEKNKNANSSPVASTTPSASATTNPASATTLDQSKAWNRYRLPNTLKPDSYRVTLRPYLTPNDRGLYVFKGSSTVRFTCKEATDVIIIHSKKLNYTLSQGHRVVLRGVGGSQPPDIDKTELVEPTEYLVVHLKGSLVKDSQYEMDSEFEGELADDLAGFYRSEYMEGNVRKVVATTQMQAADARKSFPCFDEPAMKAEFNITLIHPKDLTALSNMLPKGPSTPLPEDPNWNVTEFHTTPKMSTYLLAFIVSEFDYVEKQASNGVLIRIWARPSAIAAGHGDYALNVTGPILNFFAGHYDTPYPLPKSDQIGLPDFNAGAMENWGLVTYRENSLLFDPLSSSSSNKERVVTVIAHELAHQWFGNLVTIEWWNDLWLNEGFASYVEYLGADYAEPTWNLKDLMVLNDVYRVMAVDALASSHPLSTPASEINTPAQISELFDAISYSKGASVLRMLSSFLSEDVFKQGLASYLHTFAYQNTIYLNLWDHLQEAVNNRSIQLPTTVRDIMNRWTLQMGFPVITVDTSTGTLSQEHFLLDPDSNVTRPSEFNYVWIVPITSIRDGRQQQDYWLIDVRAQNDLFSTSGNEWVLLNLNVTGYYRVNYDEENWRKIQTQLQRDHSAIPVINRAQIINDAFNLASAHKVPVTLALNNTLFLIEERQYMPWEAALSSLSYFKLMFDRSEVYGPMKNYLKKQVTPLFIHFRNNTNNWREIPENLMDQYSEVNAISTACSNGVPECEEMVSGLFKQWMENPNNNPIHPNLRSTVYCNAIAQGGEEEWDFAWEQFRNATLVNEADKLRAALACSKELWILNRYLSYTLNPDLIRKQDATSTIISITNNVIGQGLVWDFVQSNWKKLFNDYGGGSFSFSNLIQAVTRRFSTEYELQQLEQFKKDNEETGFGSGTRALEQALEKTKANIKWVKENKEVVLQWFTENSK
Sequence of 72 kDa type IV collagenase (P08253 whole entry): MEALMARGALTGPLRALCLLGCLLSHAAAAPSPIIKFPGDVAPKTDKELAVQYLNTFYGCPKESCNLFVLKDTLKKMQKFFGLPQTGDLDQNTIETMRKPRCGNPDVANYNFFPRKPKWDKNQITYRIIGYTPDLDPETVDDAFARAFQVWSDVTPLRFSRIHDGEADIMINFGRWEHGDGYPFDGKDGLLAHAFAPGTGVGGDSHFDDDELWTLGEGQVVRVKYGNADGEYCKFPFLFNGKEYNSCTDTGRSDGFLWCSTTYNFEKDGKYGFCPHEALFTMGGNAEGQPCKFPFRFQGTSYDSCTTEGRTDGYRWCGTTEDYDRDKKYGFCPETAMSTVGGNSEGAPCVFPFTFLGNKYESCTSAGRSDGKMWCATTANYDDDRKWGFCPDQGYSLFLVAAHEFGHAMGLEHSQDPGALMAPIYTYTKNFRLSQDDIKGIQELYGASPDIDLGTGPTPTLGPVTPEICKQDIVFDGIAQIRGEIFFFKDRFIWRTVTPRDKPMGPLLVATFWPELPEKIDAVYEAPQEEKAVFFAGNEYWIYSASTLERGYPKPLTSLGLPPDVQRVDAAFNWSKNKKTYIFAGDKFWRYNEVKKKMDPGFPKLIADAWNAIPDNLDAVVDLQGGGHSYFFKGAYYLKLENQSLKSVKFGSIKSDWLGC

Consider `CNC(=O)[C@H](Cc1ccccc1)NC(=O)[C@H](CC(C)C)[C@H](CSc1cccs1)C(=O)NO` [BATIMASTAT], for which the half-inhibitory concentration (IC50) in test [1] is 25 nM; in test [2] it was 47 nM.
`O=C(CSc1ccc2ccccc2c1)NO`: the 50% inhibitory concentration (IC50) result in test [3] was “Not Active”; in test [4], “Not Active”; in test [5], “Not Active”; in test [7], 3400 nM. For the same molecule, in test [6], the affinity, expressed as Ki, was 3500 nM.

The values are drawn from ChEMBL document CHEMBL1145216, “N-hydroxy-2-(naphthalene-2-ylsulfanyl)-acetamide, a novel hydroxamic acid-based inhibitor of aminopeptidase N and its anti-angiogenic activity” (Bioorg Med Chem Lett, 2005).
